Test results reported in US5340818A, “Methods and compositions for inhibiting tumor cell growth” (priority 1993, dated 1994).
“And” between values parts separate entries of the source, which are not always exact repeats. Equal entries are not always repeated. Where two headings read alike, the source gives them in different places.

Tests used:
L1210 leukemia = L1210 leukemia survival time evaluation in BDF1 mice; settings: for Day 6 AWC / MST / N/T (nine day survivors/total mice) / % ILS (increase in lifespan) / Survival Time, individual mice: day 1, QDX4 ip; for % ILS (increase in lifespan): 25% or greater indicates activity; for antileukemic activity, in words: L1210, BDF mice, low doses, ip
HL-60 cells = test: HL-60 cell growth inhibition, 72 h; assay type: cell-based, human; settings: HL-60, 72 h; for IC50: read-out: Cell Growth Inhibition, IC50
Description: For growth inhibition studies, HL-60 cells (1.5×10^5 /ml) were grown in RPMI 1640 media (GIBCO, Grand Island, N.Y.) at 37° C. in humidified 5% CO2 for 72 h. Viable cells were determined using trypan blue exclusion and counted in a hemocytometer. The fractional inhibition for each compound concentration (0.0025-0.05 mg/ml in 0.1% dimethylsulfoxide) was analyzed with the median-effect plot using a computer program (Chou, T. -C and P. Talalay, Adv. Enzyme Regul., 22:27-55 (1984); Chou, J. and T. -C. thou, Dose-Effect analysis with microcomputers: Quantitation of ED50, LD50, synergism, antagonism, low-dose risk, receptor ligand binding and enzyme kinetics. A computer software disk for Apple II series or IBM-PC and manual. Elsevier Science Publishers, Elsevier-BioSoft, Cambridge, United Kingdom (1986)). The median-effect concentration (IC50) was determined automatically for three to five dose-effect levels. Cell growth in the absence of plant compound and in the presence of dimethylsulfoxide was used as a control. Dimethylsulfoxide alone inhibited cell growth 3.9%±1.5% during the 72 h incubation period. Those data with negative values represent activations.

[1] = tested on: DNA synthesis in HL-60 cells; test: Inhibition of [3H-methyl]dThd incorporation into DNA of HL-60 cells; assay type: cell-based, human; settings: for inhibition of DNA synthesis, in words: HL-60, 0.03 mg/ml; for inhibition at 30 µg/mL: Homo sapiens, HL-60, at 0.03 mg/mL, read-out: % Inhibition of Precursor Incorporation, DNA
Description: (§1) For the precursor incorporation studies, each compound (in 0.3% dimethylsulfoxide) was preincubated with HL-60 cells (a human promyelocytic leukemic cell line) 2.2×10^6 /ml, for 15 min prior to the addition of the labeled precursor (obtained from ICN Radiochemicals, Irvine, Calif.) and then incubated for 30 min. The precursors used for incorporation into DNA, RNA and protein were [^3 H-methyl]dThd (1 μCi, 0.15 nmole/ml), [5-^3 H]Cyd (5 μCi, 0.23 nmol/ml), and [2,3,4,5-^3 H]L-Leu (0.5 μCi, 0.004 nmol/ml), respectively. Incorporation of radioactivity in the absence of a plant compound and in the presence of dimethylsulfoxide was used as a control.
Human promyelocytic cells (HL-60) were incubated with [^3 H-methyl]dTHDin the presence and absence of a plant alkaloid.

[2] = tested on: RNA synthesis in HL-60 cells; test: Inhibition of [5-3H]Cyd incorporation into RNA of HL-60 cells; assay type: cell-based, human; settings: for inhibition at 30 µg/mL: Homo sapiens, HL-60, 0.5 h
Description: as §1, with “control. The control values for incorporation into DNA, RNA and protein were 8,500, 5,600 and 1,700 cpm/10^6 cells, respectively. The incubation conditions and the procedures for isolating DNA, RNA and protein fractions have been previously described (Chou, T. -C., et al., Cancer Res., 43:3074-3079 (1983)) .” for “control.”
(§2) HL-60 cells were incubated with [5-^3 H]Cyd or [2,3,4,5-^3 H]L-Leu in the presence and absence of alkaloids (0.03 mg/ml) in order to find the effects of the alkaloid on the incorporation of labeled precursors into RNA or protein. […] Over 90% of RNA and protein biosynthesis were inhibited by compounds 11, 16, 17, 22, 28, 29and 30 (Table 1). […] In most cases, the amount required to inhibit precursor incorporation into DNA was less than that to inhibit precursor incorporation into RNA or protein (i.e. DNA synthesis is inhibited most potently).

[3] = tested on: protein synthesis in HL-60 cells; test: Inhibition of [2,3,4,5-3H]L-Leu incorporation into protein of HL-60 cells; assay type: cell-based, human; settings: for inhibition at 30 µg/mL: Homo sapiens
Description: as §1, with “control. The control values for incorporation into DNA, RNA and protein were 8,500, 5,600 and 1,700 cpm/10^6 cells, respectively. The incubation conditions and the procedures for isolating DNA, RNA and protein fractions have been previously described (Chou, T. -C., et al., Cancer Res., 43:3074-3079 (1983)) .” for “control.”
as §2

tumors = settings: literature; cited from earlier work
[4] = at 0.03 mg/mL, read-out: % Inhibition of Precursor Incorporation, RNA
[5] = HL-60, at 0.03 mg/mL, read-out: % Inhibition of Precursor Incorporation, Protein
[6] = read-out: % Inhibition of Precursor Incorporation, RNA, at 0.03 mg/mL
[7] = HL-60, read-out: % Inhibition of Precursor Incorporation, Protein, at 0.03 mg/mL

## C=C(C)C1CCC2(C)CC1c1c(cc3c(c1O)c(=O)c1cccc(O)c1n3C)O2 (stereo not drawn) [Compound 50, Cycloglyco-foline]
L1210 leukemia; 12.5 mg/kg
  Day 6 AWC: +1.8 g
  MST: 8.5
  N/T (nine day survivors/total mice): 0/2
  % ILS (increase in lifespan): 21%
L1210 leukemia; 12.5 mg/kg, listed as Sk 32091
  Survival Time, individual mice: 8 and 9
HL-60 cells
  cell growth inhibition, in words: better activity than that of acronycine
HL-60 cells; Homo sapiens
  IC50: 5.8 µg/mL and 14.8 µM
[1]
  inhibition of DNA synthesis, in words: inhibited DNA synthesis significantly
  inhibition at 30 µg/mL: 98.7%
[2]; HL-60, 0.03 mg/ml
  inhibition of RNA biosynthesis, in words: The same results were obtained
[2]; [4]
  inhibition at 30 µg/mL: 55.7%
[3]; HL-60, 0.03 mg/ml
  inhibition of protein biosynthesis, in words: The same results were obtained
[3]; [5]
  inhibition at 30 µg/mL: 92.1%

## COc1cc(O)c2c(=O)c3cccc(OC)c3n(C)c2c1OC [Compound 17, 5-O-Methyl-citrusinine-I]
L1210 leukemia; 6.25 mg/kg
  Day 6 AWC: +1.8 g
  MST: 7.0
  N/T (nine day survivors/total mice): 0/2
  Survival Time, individual mice: 7
  % ILS (increase in lifespan): 0%
L1210 leukemia; 12.5 mg/kg
  Day 6 AWC: +1.5 g
  MST: 7.0
  N/T (nine day survivors/total mice): 0/2
  Survival Time, individual mice: 7
  % ILS (increase in lifespan): 0%
L1210 leukemia
  antileukemic activity, in words: not active
HL-60 cells
  cell growth inhibition, in words: significant activity against leukemic cells in vitro
HL-60 cells; Homo sapiens
  IC50: 2.7 µg/mL and 8.6 µM
[1]
  inhibition at 30 µg/mL: 93.4%
[2]; [4]
  inhibition at 30 µg/mL: 96.4%
[3]; [5]
  inhibition at 30 µg/mL: 93%

## CC1(C)C=Cc2c(cc(O)c3c(=O)c4cccc(O)c4[nH]c23)O1 [Compound 34, Atalaphyllidine]
L1210 leukemia; 6.25 mg/kg
  Day 6 AWC: +1.7 g
  MST: 7.0
  N/T (nine day survivors/total mice): 0/2
  Survival Time, individual mice: 7
  % ILS (increase in lifespan): 0%
L1210 leukemia; 25 mg/kg
  Day 6 AWC: +1.5 g
  MST: 7.5
  N/T (nine day survivors/total mice): 0/2
  % ILS (increase in lifespan): 7%
L1210 leukemia; 25 mg/kg, listed as SK 32090
  Survival Time, individual mice: 7 and 8
L1210 leukemia
  antileukemic activity, in words: evidence of antileukemic activity
HL-60 cells
  cell growth inhibition, in words: comparable activity
HL-60 cells; Homo sapiens
  IC50: 1.3 µg/mL and 4.2 µM
[1]
  inhibition at 30 µg/mL: 78.9%
[2]; [6]
  inhibition at 30 µg/mL: 94.8%
[3]; [7]
  inhibition at 30 µg/mL: 82.9%

## CN(C)CCOc1cc2c(c3c1c(=O)c1ccccc1n3C)C=CC(C)(C)O2 [Compound 2, O-(dimethylaminoethyl)noracronycine]
tumors
  antitumor activity, in words: significant antitumor activity

## Cn1c2c(O)cccc2c(=O)c2c(O)cc3c(c21)C=CC(C)(C)O3 [Compound 37, 11-Hydroxy-noracronycine]
L1210 leukemia; 6.25 mg/kg
  Day 6 AWC: +2.0 g
  MST: 7.0
  N/T (nine day survivors/total mice): 0/2
  Survival Time, individual mice: 7
  % ILS (increase in lifespan): 0%
L1210 leukemia; 25 mg/kg
  Day 6 AWC: +1.8 g
  MST: 7.0
  N/T (nine day survivors/total mice): 0/2
  Survival Time, individual mice: 7
  % ILS (increase in lifespan): 0%
L1210 leukemia
  antileukemic activity, in words: not active
HL-60 cells
  cell growth inhibition, in words: comparable activity
HL-60 cells; Homo sapiens
  IC50: 2.3 µg/mL and 7.1 µM
[1]
  inhibition at 30 µg/mL: 98.6%
[2]; [4]
  inhibition at 30 µg/mL: 96.6%
[3]; [5]
  inhibition at 30 µg/mL: 95.3%

## COc1c(O)ccc2c(=O)c3c(O)cc4c(c3n(C)c12)CCC(C)(C)O4 [Compound 43, 1,2-dihydrocitracridone-I]
HL-60 cells
  cell growth inhibition, in words: only half as potent as their parent compounds
HL-60 cells; Homo sapiens
  IC50: 6.4 µg/mL and 18 µM
[1]
  inhibition of DNA synthesis, in words: same potency as their parent compounds
  inhibition at 30 µg/mL: 94.9%
[2]; [4]
  inhibition at 30 µg/mL: 68%
[3]; [5]
  inhibition at 30 µg/mL: 81.9%

## COc1c(O)cc(O)c2c(=O)c3cccc(O)c3n(C)c12 [Compound 15, Citrusinine-II]
HL-60 cells; Homo sapiens
  IC50: 17 µg/mL and 59.2 µM
[1]
  inhibition at 30 µg/mL: 88.5%
[2]; [6]
  inhibition at 30 µg/mL: 91.7%
[3]; [7]
  inhibition at 30 µg/mL: 54.3%

## COc1cc2c(c3[nH]c4ccccc4c(=O)c13)C=CC(C)(C)O2 [Compound 33, des-N-methyl acronycine]
HL-60 cells
  cell growth inhibition, in words: significantly active
HL-60 cells; Homo sapiens
  IC50: 5.4 µg/mL and 17.6 µM
[1]
  inhibition of DNA synthesis, in words: markedly increased
  inhibition at 30 µg/mL: 93.8%
[2]; [4]
  inhibition at 30 µg/mL: 67.3%
[3]; [5]
  inhibition at 30 µg/mL: 86.4%

## COc1ccc2c(=O)c3c(O)cc(OC)c(CC=C(C)C)c3n(C)c2c1OC [Compound 30, Balyumine-B]
HL-60 cells; Homo sapiens
  IC50: 1.7 µg/mL and 4.4 µM
[1]
  inhibition at 30 µg/mL: 86.9%
[2]; [4]
  inhibition at 30 µg/mL: 92.5%
[3]; [5]
  inhibition at 30 µg/mL: 87%

## CC(C)=CCc1c(O)c(C2CC(C)(C)Oc3cc(O)c4c(=O)c5ccccc5[nH]c4c32)c(O)c2c(=O)c3ccccc3n(C)c12 (stereo not drawn) [Compound 52, Glycobismine-A]
HL-60 cells
  Cell Growth Inhibition, IC50: > 40 µg/mL
  IC50: > 66.4 µM
[1]
  inhibition of DNA synthesis, in words: not active
[1]; at 0.03 mg/mL
  % Inhibition of Precursor Incorporation, DNA: -27.8%
[2]; at 0.03 mg/mL
  % Inhibition of Precursor Incorporation, RNA: -57.4%
[3]; at 0.03 mg/mL
  % Inhibition of Precursor Incorporation, Protein: -13.2%

## COc1cc(O)c2c(=O)c3cccc(O)c3n(C)c2c1OC [Compound 16, Citrusinine-I]
HL-60 cells
  cell growth inhibition, in words: significant activity against leukemic cells in vitro
HL-60 cells; Homo sapiens
  IC50: 2.6 µg/mL and 8.6 µM
[1]
  inhibition at 30 µg/mL: 97%
[2]; [6]
  inhibition at 30 µg/mL: 96.5%
[3]; [7]
  inhibition at 30 µg/mL: 87%
